Measured values taken from ChEMBL document CHEMBL4118151, “Highly potent activity of isopulegol-derived substituted octahydro-2H-chromen-4-ols against influenza A and B viruses” (Bioorg Med Chem Lett, 2018).

Assays:
[1] = test system: Influenza A virus; experiment: Antiviral activity against amantadine/rimantadine-resistant Influenza A virus (A/Puerto Rico/8/34(H1N1)) infected in MDCK cells assessed as inhibition of viral replication after 48 hrs by hemagglutination test; format: functional, organism-based; conditions: A/Puerto Rico/8/1934(H1N1)
[2] = Selectivity index, ratio of CC50 for MDCK cells to IC50 for amantadine/rimantadine-resistant Influenza A virus (A/Puerto Rico/8/34(H1N1)); format: toxicity; conditions: dog, read-out: Ratio CC50/IC50
[3] = test system: Influenza A virus; experiment: Antiviral activity against osaltamivir-resistant Influenza A virus (A/Vladivostok/02/09(H1N1)) infected in MDCK cells assessed as inhibition of viral replication after 48 hrs by hemagglutination test; format: functional, organism-based
[4] = test system: Influenza A virus; experiment: Antiviral activity against amantadine/rimantadine-resistant Influenza A virus (A/California/07/09(H1N1)) infected in MDCK cells assessed as inhibition of viral replication after 48 hrs by hemagglutination test; format: functional, organism-based; conditions: A/California/07/2009(H1N1)
[5] = Selectivity index, ratio of CC50 for MDCK cells to IC50 for amantadine/rimantadine-resistant Influenza A virus (A/California/07/09(H1N1)); format: toxicity; conditions: dog, read-out: Ratio CC50/IC50
[6] = test system: Influenza B virus; experiment: Antiviral activity against amantadine/rimantadine-resistant Influenza B virus (B/Florida/4/06(Yamagata-like)) infected in MDCK cells assessed as inhibition of viral replication after 48 hrs by hemagglutination test; format: functional, organism-based, Influenza B virus (B/Florida/4/2006)
[7] = Selectivity index, ratio of CC50 for MDCK cells to IC50 for osaltamivir-resistant Influenza A virus (A/Vladivostok/02/09(H1N1)); format: toxicity; conditions: dog, read-out: Ratio CC50/IC50
[8] = Selectivity index, ratio of CC50 for MDCK cells to IC50 for amantadine/rimantadine-resistant Influenza B virus (B/Florida/4/06/Yamagata-like); format: toxicity; conditions: dog, read-out: Ratio CC50/IC50

For CCCC1(CCC)C[C@@](C)(O)[C@@H]2CC[C@@H](C)C[C@@H]2O1, the IC50 [1] was 45.5 µM and the selectivity ratio [2] was 3.
For C[C@@H]1CC[C@@H]2[C@H](C1)OC1(CCCCCCC1)C[C@@]2(C)O, the IC50 [1] was > 118 µM.
With CCC1(CC)C[C@@](C)(O)[C@@H]2CC[C@@H](C)C[C@@H]2O1 the IC50 [1] was 19.6 µM and the selectivity ratio [2] was 10.
Work on CC(N)C12CC3CC(CC(C3)C1)C2 (centres undefined) [RIMANTADINE] yielded an IC50 [1] of 72 µM and a selectivity ratio [2] of 4.
C[C@@H]1CC[C@@H]2[C@H](C1)OC1(CCCCCC1)C[C@@]2(C)O showed an IC50 [1] of 82.7 µM and a selectivity ratio [2] of 3.
For C[C@@H]1CC[C@@H]2[C@@H](C1)OC(C)(C)C[C@]2(C)O, the IC50 [1] was 70.8 µM and the selectivity ratio [2] was 12.
In the case of C[C@@H]1CC[C@@H]2[C@@H](C1)O[C@@H](C1CCCCC1)C[C@@]2(C)O, the IC50 [1] is reported as 12.4 µM and the selectivity ratio [2] is reported as 2.
With CC(C)=O [ACETONE] the IC50 [1] was 7.5 µM.
NC(=O)c1ncn([C@@H]2O[C@H](CO)[C@@H](O)[C@H]2O)n1 [RIBAVIRIN] gave an IC50 [1] of 44 µM.
For C[C@@H]1CC[C@@H]2[C@H](C1)OC(C)(C)CC2(C)O (some centres undefined), the IC50 [1] was 17 µM and the selectivity ratio [2] was 4.
With C[C@@H]1CC[C@@H]2[C@@H](C1)OC(C)(C)C[C@@]2(C)O the IC50 [3] was > 1420 µM, the IC50 [4] was 0.9 µM and the IC50 [1] was 7.5 µM. The selectivity ratio [5] was 1570, the IC50 [6] was 17 µM and the selectivity ratio [7] was 1. It also gave a selectivity ratio [8] of 83.
For C[C@@H]1CC[C@@H]2[C@H](C1)OC1(CCCCC1)C[C@@]2(C)O, the IC50 [1] was 18.3 µM and the selectivity ratio [2] was 34.
In the case of CCC[C@H]1C[C@@](C)(O)[C@@H]2CC[C@@H](C)C[C@H]2O1, the IC50 [1] is reported as > 1330 µM.
With C[C@@H]1CC[C@@H]2[C@H](C1)OC1(CCCC1)C[C@@]2(C)O the IC50 [1] was 8.4 µM and the selectivity ratio [2] was 96.
